Measurements published in PubChem BioAssay (NCI).
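A five-concentration, 48-hour dose response in 96-well plates underlies each endpoint, interpolated linearly between surrounding concentrations. The concentration for full growth arrest is given as TGI.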

Legend:
Assay in all cases: NCI-60 cell line screen, 48 h
HCT-116 colon = tested on: HCT-116 colon
UACC-257 melanoma = tested on: UACC-257 melanoma
ACHN renal = tested on: ACHN renal
SF-539 CNS = tested on: SF-539 CNS
SNB-75 CNS = tested on: SNB-75 CNS
HCC-2998 colon = tested on: HCC-2998 colon
SR leukemia = tested on: SR leukemia
OVCAR-5 ovarian = tested on: OVCAR-5 ovarian
TK-10 renal = tested on: TK-10 renal
SK-MEL-28 melanoma = tested on: SK-MEL-28 melanoma
KM12 colon = tested on: KM12 colon
CAKI-1 renal = tested on: CAKI-1 renal
SN12C renal = tested on: SN12C renal
MOLT-4 leukemia = tested on: MOLT-4 leukemia
MDA-N = tested on: MDA-N
MDA-MB-435 = tested on: MDA-MB-435
NCI-H23 lung = tested on: NCI-H23 lung
SF-295 CNS = tested on: SF-295 CNS
A549 NSCLC = tested on: A549 NSCLC
RPMI-8226 leukemia = tested on: RPMI-8226 leukemia

SMILES	TGI (HCT-116 colon) [µM]	TGI (UACC-257 melanoma) [µM]	TGI (ACHN renal) [µM]	TGI (SF-539 CNS) [µM]	TGI (SNB-75 CNS) [µM]	TGI (HCC-2998 colon) [µM]	TGI (SR leukemia) [µM]	TGI (OVCAR-5 ovarian) [µM]	TGI (TK-10 renal) [µM]	TGI (SK-MEL-28 melanoma) [µM]	TGI (KM12 colon) [µM]	TGI (CAKI-1 renal) [µM]	TGI (SN12C renal) [µM]	TGI (MOLT-4 leukemia) [µM]	TGI (MDA-N) [µM]	TGI (MDA-MB-435) [µM]	TGI (NCI-H23 lung) [µM]	TGI (SF-295 CNS) [µM]	TGI (A549 NSCLC) [µM]	TGI (RPMI-8226 leukemia) [µM]
CC(C)Cc1ccc(C(C)/C=C2\CCC(CN3CCOCC3)C2=O)cc1 (stereo not drawn)	18.7	14.7	29.4	19.8	22.1	24.1	13.8	35.9	14.9	22.8	16.9	33.5	21.5	11	24.7	20.2	29.4	29.3	34.8	
C=CC1(c2ccc(Cl)c(Cl)c2)OCCO1	> 100	> 100	> 100		55.2	> 100	> 100	> 100	> 100	> 100	> 100		> 100	> 100	> 100	> 100	> 100	> 100	> 100	> 100
Cn1c2c(c3c(=O)[nH]ncc31)CCc1ccccc1-2	64.2	40.6	72.4	> 100	87.8		55.2	> 100	45.3	70.8	54.9	> 100	> 100	75	91	> 100	71.4	> 100	> 100	67.4
CCC(C)[C@H]1C(=O)N=C(N)N1C(=O)OCc1ccccc1 (stereo partly drawn)	> 100	> 100	> 100		> 100	> 100	> 100	> 100	> 100	> 100	> 100	> 100	> 100	> 100	> 100	> 100	> 100	> 100		> 100
O=C(CN1CCOCC1)c1ccc2[nH]c(=O)oc2c1	> 100	> 100	> 100	> 100	> 100		> 100	> 100	> 100	> 100	> 100	> 100	> 100	> 100	> 100	> 100	> 100	> 100		> 100
O=c1oc2ccccc2c(-c2ccc(O)cc2)c1Oc1ccc(Cl)cc1	35.6	83.8	97.2	> 100	85.7	46.1	51.9	> 100	62.1	> 100	> 100	> 100	79.7		67.6	> 100	68.6	60.6	47.3	52.4
CCOC(=O)CCC(NC(=O)N1CCN(c2c(C)nc(C)[nH]c2=O)CC1)C(=O)OCC (stereo not drawn)	> 100	> 100	> 100	> 100		> 100	> 100	> 100	> 100	> 100	> 100	> 100	> 100	> 100	> 100	> 100	> 100	> 100	> 100	> 100
C[C@@]12C[C@@H](c3ccccc3O1)N1CCSC1=N2	> 100	> 100	> 100	> 100	> 100	> 100	> 100	> 100	> 100	> 100	> 100	> 100	> 100	> 100	> 100	> 100	> 100	> 100		> 100
CCC(C#N)N(Cc1ccc(CN(C(=O)c2ccccc2)C(C#N)CC)cc1)C(=O)c1ccccc1 (stereo not drawn)	96.8	49	> 100	48.6	68.8	36.7	> 100	> 100	74.4		67.7	> 100	69.3	65	> 100	65.7	> 100	> 100	> 100	42.7
CNC(=S)NNC1=NCCCN1	> 100	> 100	> 100	> 100	> 100	> 100	> 100	> 100	> 100	> 100	> 100	> 100		> 100	> 100	> 100	> 100	> 100	> 100	> 100
COc1ccc2cc(-c3ccc(OC)c(OC)c3)c(=O)oc2c1	> 100	> 100	> 100	> 100		> 100	> 100	> 100	> 100	> 100	> 100	> 100	> 100	> 100	> 100	> 100	> 100	> 100	> 100	> 100
NNC(=O)CC(=O)Nc1ccc(C(=O)O)cc1	> 100	> 100	> 100	> 100	> 100		> 100	> 100	> 100		> 100	> 100	> 100	> 100	> 100	> 100	> 100	> 100	> 100	> 100
COc1cccc(N=N/C(=N/NC(=O)c2cc(Cl)ccc2O)c2ccc(N(CCC#N)CCC#N)cc2C)c1	> 100	59.5	> 100	> 100	> 100	92	> 100	> 100	> 100		> 100	> 100	> 100	89.6	> 100	> 100	> 100	> 100	> 100	> 100
